Measured values: US20240132522A1, “HETEROCYCLIC COMPOUNDS AND METHODS OF USE THEREOF” (1cBio, Inc., priority 2022, published 2024)
pIC50: −log10 of the molar value. Where a name gives a salt, the structure may show the parent alone.

Tests used:
[1] = tested on: DLD-1 wild-type colorectal adenocarcinoma cells; assay: Cell viability assay (Cell Titer-Glo), DLD-1 wild-type; type: cell-based; details: Homo sapiens, DLD-1, 168 h, 7 days, 50 cells/well
Source text: (§1) In some embodiments, the biological assay measures the effects that compounds of the present disclosure may have on the viability of cells, e.g., the viability of cancer cells. In some embodiments, DLD-1 wild-type and DLD-1 BRCA2(−/−) colorectal adenocarcinoma cells, an isogenic pair of cell lines differing in the presence and absence, respectively, of both BRCA2 alleles, are used to measure the effect of the disclosed compounds on the viability of cancer cells.
(§2) In some embodiments, the cells are harvested during the logarithmic growth period, counted, and seeded at a specified count in the wells of a 96- or 384-well cell culture plate. In some embodiments, after seeding, the cells are incubated, e.g., at 37° C., 5% CO2 overnight. In some embodiments, the cells are treated with compounds, e.g., with serially diluted test compounds at 8-11 concentrations within a desired concentration range, e.g., from 1 nM-10 μM, for the generation of dose-response curves. In some embodiments, the plate is further incubated, e.g., for another 3-7 days in a humidified incubator at 37° C. and 5% CO2. In some embodiments, cell viability is assessed by luminescence measurement after addition of Cell Titer-Glo reagent (Promega, Madison, Wis.) according to the manufacturer's instructions. In some embodiments, cell viability IC50 values are calculated using XLFit, equation 201: y=A+((B−A)/(1+((x/C)^D))), where A=bottom, B=top, C=IC50, and D=slope. In some embodiments, the effects of the test compounds on the viability of other cell lines such as MDA-MB-436, MDA-MB-231, SUM149PT, HCC1395, and UWB1.289 are determined in an analogous method.
(§3) Compounds of the present disclosure were tested for their effects on the viability of cancer cells. DLD-1 wild-type and DLD-1 BRCA2(−/−) colorectal adenocarcinoma cells, an isogenic pair of cell lines differing in the presence and absence, respectively, of both BRCA2 alleles, were used. The cells were harvested during the logarithmic growth period, counted, and seeded at 50 cells/well for DLD-1 wild-type and 200 cells/well for DLD-1 BRCA2(−/−) in a 384-well cell culture plate. After seeding, cells were incubated at 37° C., 5% CO2 overnight. Cells were treated with serially diluted test compounds at 10 concentrations from 1.5 nM-30 μM) for generation of dose response curves. The plate was further incubated for another 7 days in a humidified incubator at 37° C. and 5% CO2. Cell viability was assessed by luminescence measurement after addition of Cell Titer-Glo reagent (Promega, Madison, Wis.) according to the manufacturer's instructions. Cell viability IC50 values were calculated using XLFit, equation 201: y=A+((B−A)/(1+((x/C)^D))), where A=bottom, B=top, C=IC50, and D=slope. IC50 values are shown in Table B and are presented in ranges, in which “+++”<300 nM, 300 nM≤“++”<3000 nM, and “+”≥3000 nM. Effects of the test compounds on the viability of other cell lines such as MDA-MB-436, MDA-MB-231, SUM149PT, HCC1395, and UWB1.289 are determined in an analogous method.

[2] = target: recombinant human PARP1 (Homo sapiens, UniProt P09874); assay: PARP1 fluorescence polarization binding assay; details: binding IC50, GST-tagged PARP1 20 nM, PARPi-FL probe 3 nM, 4 h at RT
Experimental: In some embodiments, the biological assay is described in the Examples herein. In some embodiments, the biological assay measures PARP-1 binding by way of fluorescence polarization measurements. In some embodiments, binding of a test compound to recombinant human PARP-1 reduces the amount of binding of a fluorescent probe, and consequently reduces the detected level of fluorescence polarization. In some test compound stock solutions are prepared in a solvent, e.g., DMSO, and are serially diluted into a range of concentrations, e.g., 15 concentrations, 14 concentrations, 13 concentrations, 12 concentrations, 11 concentrations, 10 concentrations, 9 concentrations, 8 concentrations, 7 concentrations, 6 concentrations, or 5 concentrations, by a dilution factor, e.g., a 10-fold dilution factor, a 9-fold dilution factor, an 8-fold dilution factor, a 7-fold dilution factor, a 6-fold dilution factor, a 5-fold dilution factor, a 4-fold dilution factor, a 3-fold dilution factor, or a 2-fold dilution factor. In some embodiments, the serial dilutions, e.g., 100 nL of serial dilution, 90 nL of serial dilution, 80 nL of serial dilution, 70 nL of serial dilution, 60 nL of serial dilution, 50 nL of serial dilution, 30 nL of serial dilution, 20 nL of serial dilution, or 10 nL of serial dilution, are added to a multi-welled plate, e.g., a 1536-well plate, a 384-well plate, or a 96-well plate. In some embodiments, PARP-1, e.g., GST-tagged PARP-1, is diluted in assay buffer, e.g., 50 μL of assay buffer, 40 μL of assay buffer, e.g., 30 μL of assay buffer, 20 μL of assay buffer, 10 μL of assay buffer, or 5 μL of assay buffer, and is added to the plate. In some embodiments, the plate is centrifuged, e.g., at 1000 rpm for 1 min, and incubated, e.g., incubated for 30 minutes at room temperature (RT). In some embodiments, a fluorescent probe, e.g., 10 μL of 6 nM PARPi-FL (TOCRIS, Cat #6461), is diluted in an assay buffer and is added to the plate. In some embodiments, the final concentrations of PARP-1 and fluorescent probe are 20 nM and 3 nM, respectively, in a total volume of 20 μL. In some embodiments, the plate is centrifuged, e.g., at 1000 rpm for 1 minute, and the assay plate is incubated, e.g., for 4 h at RT. In some embodiments, the samples in each well are read using a plate reader, e.g., an Envision instrument using excitation=480 nm, and emission wavelength=FITC FP-P pol 535 nm & FITC FP-S pol 535 nm). In some embodiments, percent inhibition is calculated from mP values using Inhibition (%)=[1−(mPc−mPL)/(mPH−mPL)]×100%, where mPc, mPL, and mPH are the mP values of test compound, Low controls, and High controls, respectively. In some embodiments, binding IC50 values are calculated using XLFit (equation 201: y=A+((B−A)/(1+((x/C)^D))), where A=bottom, B=top, C=IC50, and D=slope) with a floating top and bottom for curves.
Compounds of the present disclosure were tested in a PARP1 fluorescence polarization binding assay at Pharmaron (Beijing, P.R. China). In this biochemical assay, binding of test compound to recombinant human PARP1 reduces the amount of binding of a fluorescent probe, and consequently reduces the detected level of fluorescence polarization. Test compound stock solutions were prepared in DMSO and then serially diluted into 10 concentrations by 3-fold dilution in a 384-well plate using a TECAN EVO200. 60 nL of each dilution was transferred to the plate using an Echo550 (Labcyte), and then 10 μL 40 nM GST-tagged PARP1 (BPS Bioscience, Cat #80501), diluted in assay buffer (50 mM Tris pH 8.0, 0.001% Triton X-100, 10 mM MgCl2, 150 mM NaCl), was added to the plate. After a centrifugation at 1000 rpm for 1 min, the assay plate was incubated for 30 min at RT. 10 μL 6 nM PARPi-FL (TOCRIS, Cat #6461), diluted using assay buffer, was then added to the plate. The final concentrations of PARP1 and PARPi-FL were 20 nM and 3 nM, respectively, in a total volume of 20 μL. […]

[3] = tested on: DLD-1 BRCA2(−/−) colorectal adenocarcinoma cells; assay: Cell viability assay (Cell Titer-Glo), DLD-1 BRCA2(−/−); type: cell-based; details: Homo sapiens, DLD-1, 168 h, 7 days, 200 cells/well
Source text: as §1, §2, §3

recombinant human PARP1, sequence (P09874 whole entry): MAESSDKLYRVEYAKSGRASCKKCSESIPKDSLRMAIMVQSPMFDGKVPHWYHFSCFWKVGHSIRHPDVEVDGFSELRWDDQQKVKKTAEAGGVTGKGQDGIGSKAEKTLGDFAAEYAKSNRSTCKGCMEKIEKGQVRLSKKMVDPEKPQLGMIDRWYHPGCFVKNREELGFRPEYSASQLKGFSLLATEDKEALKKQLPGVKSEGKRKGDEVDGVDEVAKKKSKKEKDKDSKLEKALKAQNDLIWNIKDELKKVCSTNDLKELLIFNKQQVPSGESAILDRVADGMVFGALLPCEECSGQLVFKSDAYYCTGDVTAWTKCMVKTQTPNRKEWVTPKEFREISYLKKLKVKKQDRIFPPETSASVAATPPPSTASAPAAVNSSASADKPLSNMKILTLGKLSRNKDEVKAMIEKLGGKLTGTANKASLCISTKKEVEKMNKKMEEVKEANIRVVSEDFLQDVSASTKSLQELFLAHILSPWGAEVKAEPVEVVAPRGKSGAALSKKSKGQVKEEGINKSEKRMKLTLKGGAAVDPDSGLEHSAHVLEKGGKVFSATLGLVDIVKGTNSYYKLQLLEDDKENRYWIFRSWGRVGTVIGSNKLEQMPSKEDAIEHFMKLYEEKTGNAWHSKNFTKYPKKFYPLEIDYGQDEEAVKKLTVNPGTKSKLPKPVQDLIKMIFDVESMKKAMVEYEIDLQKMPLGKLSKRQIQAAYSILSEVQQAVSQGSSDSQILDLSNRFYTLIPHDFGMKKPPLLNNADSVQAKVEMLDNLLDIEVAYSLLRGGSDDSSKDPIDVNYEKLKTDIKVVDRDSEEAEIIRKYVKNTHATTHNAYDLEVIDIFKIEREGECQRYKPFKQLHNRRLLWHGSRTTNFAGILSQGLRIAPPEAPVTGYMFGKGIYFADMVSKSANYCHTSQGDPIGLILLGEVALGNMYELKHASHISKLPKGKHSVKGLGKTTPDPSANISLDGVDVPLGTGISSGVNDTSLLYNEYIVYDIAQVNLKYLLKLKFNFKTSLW

| SMILES | pIC50 [1] | pIC50 [2] | pIC50 [3] |
| --- | --- | --- | --- |
| CCc1cc2ncc(CN3C4CCC3CN(c3ccc(C(=O)NC)nc3)C4)cc2[nH]c1=O [Compound No. 3, 5-(8-((7-ethyl-6-oxo-5,6-dihydro-1,5-naphthyridin-3-yl)methyl)-3,8-diazabicyclo[3.2.1]octan-3-yl)-N-methylpicolinamide] | ≤ 5.52 | > 7.00 | 5.52 to 6.52 |
| CCc1cc2ncc(CN3CC4(C3)CN(c3ccc(C(=O)NC)nc3C)C4)cc2[nH]c1=O [Compound No. 139, 5-(6-((7-ethyl-6-oxo-5,6-dihydro-1,5-naphthyridin-3-yl)methyl)-2,6-diazaspiro[3.3]heptan-2-yl)-N,6-dimethylpicolinamide formate] | ≤ 5.52 | 5.52 to 7.00 | ≤ 5.52 |
| CCc1cc2ncc(CN3CC4CCC(C3)N4c3ccc(C(=O)NC)nc3)cc2[nH]c1=O [Compound No. 8, 5-(3-((7-ethyl-6-oxo-5,6-dihydro-1,5-naphthyridin-3-yl)methyl)-3,8-diazabicyclo[3.2.1]octan-8-yl)-N-methylpicolinamide] | ≤ 5.52 | 5.52 to 7.00 | ≤ 5.52 |
| CCc1cc2ncc(CN3CC4(C3)CN(C(=O)c3ccc(F)cc3F)C4)cc2[nH]c1=O [Compound No. 181, 7-({6-[(2,4-difluorophenyl)carbonyl]-2,6-diazaspiro[3.3]heptan-2-yl}methyl)-3-ethyl-1H-1,5-naphthyridin-2-one formate] | ≤ 5.52 | ≤ 5.52 | ≤ 5.52 |
